Consider nine compounds from ChEMBL document CHEMBL5233249, “Recent advancements in the development of heterocyclic anti-inflammatory agents” (Eur J Med Chem, 2020).

Data set [1] has as its system Mus musculus. In words: Anti-inflammatory activity in Swiss albino mouse of Carrageenan-induced paw edema assessed as reduction in inflammation at 100 mg/kg measured after 1 hr relative to control. Also noted: scale not given: the % may be the effect or the level left. Format: functional. (In general: The carrageenan paw model is a standard test of acute inflammation.)

The test system of data set [2] is Mus musculus. In words: Anti-inflammatory activity in Swiss albino mouse of Carrageenan-induced paw edema assessed as reduction in paw edema at 100 mg/kg measured after 1 hr (reference value: 142.5 +/- 5.6 uL). Format: functional.
Data set [3] relates to Mus musculus. In words: Anti-inflammatory activity in Swiss albino mouse of Carrageenan-induced paw edema assessed as reduction in inflammation at 100 mg/kg measured after 2 hr relative to control. It is filed as functional. Also noted: scale not given: the % may be the effect or the level left.
Data set [4] relates to Mus musculus. In words: Anti-inflammatory activity in Swiss albino mouse of Carrageenan-induced paw edema assessed as reduction in paw edema at 100 mg/kg measured after 2 hr (reference value: 140 +/- 6.3 uL). Format: functional.
Data set [5] has as its system Mus musculus. In words: Anti-inflammatory activity in Swiss albino mouse of Carrageenan-induced paw edema assessed as reduction in inflammation at 100 mg/kg measured after 3 hr relative to control. It is filed as functional. Also noted: scale not given: the % may be the effect or the level left.
For data set [6], the system named is Mus musculus. In words: Anti-inflammatory activity in Swiss albino mouse of Carrageenan-induced paw edema assessed as reduction in paw edema at 100 mg/kg measured after 3 hr (reference value: 130 +/- 3.8 uL). It is filed as functional.
The test system of data set [7] is Mus musculus. In words: Anti-inflammatory activity in Swiss albino mouse of Carrageenan-induced paw edema assessed as reduction in inflammation at 100 mg/kg measured after 4 hr relative to control. It is filed as functional. Details: scale not given: the % may be the effect or the level left.
Data set [8] relates to Mus musculus. In words: Anti-inflammatory activity in Swiss albino mouse of Carrageenan-induced paw edema assessed as reduction in paw edema at 100 mg/kg measured after 4 hr (reference value: 126.7 +/- 6.9 uL). It is filed as functional.
Data set [9] concerns Mus musculus. In words: Anti-inflammatory activity in Swiss albino mouse of Carrageenan-induced pleurisy assessed as reduction in total leukocytes at 50 mg/kg, po relative to control. It is filed as functional. Details: scale not given: the % may be the effect or the level left.
Data set [10] has as its system Mus musculus. In words: Anti-inflammatory activity in Swiss albino mouse of Carrageenan-induced pleurisy assessed as reduction in migration of leukocytes at 100 mg/kg, po relative to control. Format: functional. Also noted: scale not given: the % may be the effect or the level left.
The subject of data set [11] is Mus musculus. In words: Anti-inflammatory activity in Swiss albino mouse of Carrageenan-induced pleurisy assessed as reduction in migration of leukocytes at 100 mg/kg, po (reference value: 5.2 +/- 0.34). It is filed as functional.
Data set [12] deals with Mus musculus. In words: Anti-inflammatory activity in Swiss albino mouse of Carrageenan-induced pleurisy assessed as reduction in TNFalpha levels at 100 mg/kg, po. It is filed as functional.
In data set [13] the test system is Rattus norvegicus. In words: Anti-inflammatory activity in Carrageenan-induced paw edema in Wistar albino rat assessed as reduction in paw edema measured after 1 hr relative to control. Also noted: scale not given: the % may be the effect or the level left. Format: functional.
Data set [14] relates to Rattus norvegicus. In words: Anti-inflammatory activity in Carrageenan-induced paw edema in Wistar albino rat assessed as reduction in paw edema measured after 2 hr relative to control. Format: functional. Details: scale not given: the % may be the effect or the level left.
Data set [15] has as its system Rattus norvegicus. In words: Anti-inflammatory activity in Carrageenan-induced paw edema in Wistar albino rat assessed as reduction in paw edema measured after 3 hr relative to control. It is filed as functional. Also noted: scale not given: the % may be the effect or the level left.
Data set [16] has as its system Rattus norvegicus. In words: Anti-inflammatory activity against Carrageenan-induced paw edema in Wistar albino rat ulcerogenic activity assessed as reduction in severity index. Format: functional.
The test system of data set [17] is Rattus norvegicus. In words: Anti-inflammatory activity against formalin-induced foot paw edema in PO dosed rat at 10 mg/kg assessed as inhibition of edema measured after 1 hr relative to control. It is filed as functional. Details: scale not given: the % may be the effect or the level left.
Data set [18] is filed under the species Rattus norvegicus. In words: Antinociceptive activity in Wistar rat assessed as hot-plate change in latency by hot plate test method relative to control. As to conditions: in vivo. Format: organism-based. A general note: Hot-plate and tail-flick tests time the reaction to a heat stimulus.
The subject of data set [19] is Rattus norvegicus. In words: Anti-inflammatory activity against carrageenan-induced Albino Wistar rat paw edema model assessed as inhibition of rat paw edema at 50 mg/kg, po after 3 hrs relative to control. Format: functional. Also noted: scale not given: the % may be the effect or the level left.
Data set [20] deals with Rattus norvegicus. In words: Anti-inflammatory activity in Carrageenan-induced-Wistar albino rat model assessed as reduction in volume of paw edema measured after 3 hrs. Format: functional.
Data set [21] has as its system Rattus norvegicus. In words: Anti-ulcerative activity in Carrageenan-induced Sprague-Dawley rat ulcer model assessed as inhibition of ulcer index at 10 mg/kg,po. It is filed as functional.
The subject of data set [22] is Rattus norvegicus. In words: Anti-ulcerative activity in Carrageenan-induced paw edema Swiss albino rat ulcer model assessed as inhibition of ulcer index at 10 mg/kg,po. Format: functional.
For data set [23], the system named is Mus musculus. In words: Analgesic activity in PO dosed Swiss albino mouse assessed as protection of paw edema measured after 2 hrs at 20 mg/kg relative to control. It is filed as functional.
The subject of data set [24] is Rattus norvegicus. In words: Anti-inflammatory activity in Carrageenan-induced-Wistar albino rat model assessed as reduction in volume of paw edema measured after 4 hrs. Format: functional.
The nature of data set [25]: Anti-inflammatory activity assessed as protein denaturation using bovine serum albumin at 100 uM relative to control. It is filed as functional.
A short description of data set [26]: Anti-inflammatory activity assessed as protein denaturation using bovine serum albumin at 250 uM relative to control. Format: functional.
Data set [27] is described as follows: Anti-inflammatory activity assessed as protein denaturation using bovine serum albumin at 500 uM relative to control. It is filed as functional.
Data set [28] in a line: Anti-inflammatory activity assessed as protein denaturation using egg albumin at 100 uM relative to control. It is filed as functional.
The nature of data set [29]: Anti-inflammatory activity assessed as protein denaturation using egg albumin at 250 uM relative to control. It is filed as functional.
Data set [30] is described as follows: Anti-inflammatory activity assessed as protein denaturation using egg albumin at 500 uM relative to control. It is filed as functional.
For data set [31], the system named is RAW264.7. In words: Anti-inflammatory activity in mouse RAW264.7 cells assessed as inhibition of LPS-induced TNFalpha production measured after 24 hrs by EIA method relative to control. It is filed as functional. Details: scale not given: the % may be the effect or the level left.
Data set [32] concerns Rattus norvegicus. In words: Anti-inflammatory activity against formalin-induced foot paw edema in PO dosed rat at 10 mg/kg assessed as inhibition of edema measured after 4 hr relative to control. Format: functional.
For data set [33], the system named is Rattus norvegicus. In words: Anti-inflammatory activity against formalin-induced foot paw edema in PO dosed rat at 10 mg/kg assessed as inhibition of edema measured after 5 hr relative to control. It is filed as functional. Details: scale not given: the % may be the effect or the level left.
The subject of data set [34] is Rattus norvegicus. In words: Anti-ulcerative activity in aspirin induced Wistar rat ulcer model assessed as inhibition of ulcer index at 20 mg/kg,po. Format: functional.
For data set [35], the system named is Rattus norvegicus. In words: Anti-inflammatory activity in Wistar rat assessed as reduced hind paw edema at 25 mg/kg relative to control. It is filed as functional. Also noted: scale not given: the % may be the effect or the level left.
Data set [36] has as its system Mus musculus. In words: Anti-inflammatory activity in Carrageenan-induced paw edema in […] mouse model assessed as inhibition of edema at 200 mg/kg, po relative to control. Format: functional. Also noted: scale not given: the % may be the effect or the level left.
Data set [37] concerns Mus musculus. In words: Anti-inflammatory activity in Carrageenan-induced paw edema mouse model assessed as inhibition of granuloma measured after 24 hrs relative to control. It is filed as functional.
Data set [38] has as its system Rattus norvegicus. In words: Anti-inflammatory activity against formalin-induced foot paw edema in Wistar rat at 5 mg/kg, po assessed as inhibition of edema measured after 4 hr relative to control. It is filed as functional.
Data set [39] concerns Rattus norvegicus. In words: Anti-inflammatory activity in Carageenan-induced paw edema Wistar rat model assessed as reduction in paw edema volume relative to control. Format: functional. Also noted: scale not given: the % may be the effect or the level left.
Data set [40] deals with Mus musculus. In words: Anti-inflammatory activity against dimethylbenzene-induced auricular edema Kunming mouse model assessed as inhibition of ear edema at 50 mg/kg, po administered once daily relative to control. Format: functional. Details: scale not given: the % may be the effect or the level left.
In data set [41] the test system is Mus musculus. In words: Anti-inflammatory activity against dimethylbenzene-induced auricular edema Kunming mouse model assessed as inhibition of ear edema at 100 mg/kg, po administered once daily relative to control. Details: scale not given: the % may be the effect or the level left. Format: functional.

In the case of `CN1CCN(C(=O)c2cnn(-c3ccccc3)c2)CC1`, the Activity in data set [1] turned out to be 19%; in [2], 115.7 µL; in [3] it was 37%; in data set [4], 88.6 µL; in data set [5] it was 34%; in data set [6] it was 85.7 µL. The Activity worked out at 39% in data set [7]; 77.1 µL in [8]; 34.5% in data set [9]; 36.5% in data set [10]; 3.3 in data set [11]; 2.6 in data set [12].
In the case of `Clc1ccccc1-c1nnc(Cn2c(CN3CCOCC3)nc3ccccc32)o1`, the Activity was 38.54% in [13], 67.12% in [14], 74.17% in data set [15] and 0.28 mm in data set [16].
In the case of `CCOC(=O)c1c(SC)nn(C(=O)CSc2nnc(CCCOc3ccc(C)cc3C(=O)c3ccc(F)cc3)o2)c1N`, the results for the Activity in data set [17] and in data set [18] were 52.17% and 92.3%, respectively.
As to `NS(=O)(=O)c1ccc(N/N=C/c2cn(-c3ccc(S(N)(=O)=O)cc3)nc2-c2ccc(Cl)cc2)cc1`, the Activity in data set [19] stood at 97.69%. In data set [20], the ED50 was 8 mg/kg. Also, the UI in [21] came to 2.72.
With `CC1=NN(c2ccc(Cl)cc2)C(=O)/C1=N\Nc1ccc(-c2nc3ccccc3[nH]2)cc1`, the UI in [22] is on record as 0.53. In data set [23], the Activity is on record as 67%.
In the case of `Cc1nn(-c2ccccc2)c2c1C(c1ccccc1[N+](=O)[O-])C(C#N)=C(/N=C/c1ccccc1)O2` (configuration not stated), the median effective dose (ED50) in data set [24] is 858 µmol/kg.
For `COc1ccc(NC(=O)c2cc(-c3ccncc3)n[nH]2)cc1`, the Activity amounted to 65% in data set [25]; 80% in data set [26]; 90% in data set [27]; 60% in data set [28]; 85% in data set [29]; 95% in data set [30].
Turning to `COc1cc(OC)c2c(c1)OCC/C(=C\Cc1ccccn1)C2=O`, the Activity in data set [31] came out at 92.5%.
As to `Cc1ccc(-c2cc(C(F)(F)F)nn2-c2ccc(S(N)(=O)=O)cc2)cc1` [CELECOXIB], the inhibition in vivo at 10 mg/kg in [32] came to 46.4%. The Activity in data set [33] was 69%; in data set [35], 57.14%; in [36], 17.5%; in [39], 87.59%; in data set [40], 79%; in data set [41], 36%. Besides, the UI was determined as 2.99 in data set [34] and 2.93 in data set [21]. Moreover, the “inhibition (INH)” value in [37] was 8.6%. Further, the inhibition in vivo at 5 mg/kg in data set [38] is 46.4%.

What is called ED50 is the dose at which the effect has come halfway, by size or by number of responders. A word on the inhibition in vivo: it is how much of the control response was suppressed.
